Measurements: paper PMC6987146, “Potent inhibition of HIV replication in primary human cells by novel synthetic polyketides inspired by Aureothin” (Scientific Reports, 2020)

Assays:
[1] = system: HIV-1 transcripts (unspliced, singly spliced, multiply spliced, all); assay: Relative levels of HIV-1 transcript classes by qRT-PCR in LC5-RIC cells; assay type: cell-based; details: HIV-1LAI, 48 h, vs untreated
Protocol: LC5-RIC cells were plated, treated with compounds and inoculated with virus as described for Alu-PCR above. Cells were then harvested and RNA was extracted using the RNeasy Mini Kit (QIAGEN), according to the manufacturer’s protocol. For cDNA synthesis, 1 µg of total RNA was reverse transcribed by SuperScript II reverse transcriptase (Invitrogen) according to manufacturer’s recommendations. qRT-PCR was performed with the Roche Light Cycler® 480II 96 (Version 1.5.0.39), using LightCycler® 480 SYBR Green I Mastermix (Roche). Quantitative PCR for HIV-1 transcripts was performed with primers specific for unspliced, singly spliced or multiply spliced HIV-1 transcripts as well as for ‘all HIV transcripts’; RNA Polymerase II transcripts were analysed as internal reference gene. Primer sequences are given in Supplementary Methods and binding sites shown in Supplementary Fig. S3. Data was analysed with the second derivative maximum method. The relative amount of HIV-1 transcripts in treated versus untreated samples was calculated by the 2^(−ΔΔCt) method, using RNA polymerase II as reference gene.
The following primers were used to perform the qRT-PCR analysis (primer sequences 5’ ? 3’): multiply spliced, forward: ATGGAGCCAGTAGATCCTAG, reverse: AGT CTC TCA AGC GGT GGT ^1; singly spliced, forward: GGc GGC GAC TGG AAG AGG C, reverse: CTATGATTACTATGGACCACA ^1; unspliced, forward: CTG AAG CGC GCA CGG CAA, reverse: GACGCTCTCGCACCCATCTC ^1; ‘all HIV transcripts’, forward: GTGTGTGGTAGATCCACAGATCAAGG, reverse: CCAGTCACACCTCAGGTACCTTTAAGACC ^2; RNA polymerase II, forward: GCA CCA CGT CCA ATG ACA T, reverse: GTG CGG CTG CTT CCA TAA ^3. See primer binding sites in different HIV transcripts in Fig. S1.

[2] = system: HIV-1OMVP5180-91; assay: Inhibition of clinical isolate HIV-1O MVP5180-91 in PBMCs; assay type: cell-based; details: PBMC, HIV-type 1, Outlier group
Source text: (§1) Clinical isolates represented the following HIV genotypes: HIV-1MMVP899-87: HIV-type 1, Major group; HIV-1OMVP5180-91: HIV-type 1, Outlier group; HIV-2MVP10668-93: HIV-type 2; HIV-1V13-03413B: HIV-type 1, Major group/B-clade, isolate with multiple drug-resistance mutations. Depicted are the means of three independent experiments with biological triplicates (n = 3; m = 3) and standard deviations (SD).
(§2) Isolation of primary clinical HIV-isolates HIV-1MMVP899-87, HIV-1OMVP5180-91, HIV-1V13-03413B and HIV-2MVP10668-93 is described in[43]. The HIV-1 M group/B-clade isolate (HIV-1V13-03413B) was isolated from a patient with virological treatment failure. Clinical isolates were produced from HIV infected H9 cells as described.
(§3) To evaluate anti-HIV efficacies of test compounds in primary human target cells, stimulated PBMCs were seeded in 96-well plates at a density of 500,000 cells per well, different #7concentrations of the compound (serial dilutions) and virus inoculum (MOI of 0.5) added to the PBMCs and cultures incubated for 48 h. Infectious virus production was quantified by transferring 35 µl of supernatant from the PBMC cultures to LC5-RIC cells, seeded in black 96-well plates one day earlier. LC5-RIC cultures were then incubated for 72 h and analysed for DsRed1 reporter expression and anti-HIV activity calculated as described for the EASY-HIT assay.

[3] = system: HIV-2MVP10668-93; assay: Inhibition of clinical isolate HIV-2 MVP10668-93 in PBMCs; assay type: cell-based, HIV-type 2; details: Human immunodeficiency virus 2, PBMC
Source text: as §1, §2, §3

[4] = system: PBMC; assay: CellTiter-Glo 2.0 cell viability assay in PBMC; assay type: cell-based, human; details: PBMC
Protocol: The following assays were used to profile cell safety of compound treatment in HIV-exposed cultures (LC5-RIC or PBMC): (1) CellTox^TM Green Cytotoxicity Assay, Promega, measures binding of a fluorescent dye to DNA of cells with impaired membrane integrity; (2) CellTiter-Glo® 2.0 Assay, Promega, which measures the amount of ATP in viable cells after lysis using an assay with luminescence read-out. Cells were plated into black 96-well plates followed by overnight incubation at 37 °C, 5% CO2. Compounds dissolved in DMSO were screened at multiple concentrations from 0.6 to 10,000 nM at a final DMSO concentration of 0.04% followed by additional 48 h incubation. Both assays were performed according to manufacturer’s recommendations and consecutively in the above mentioned order. Cells were washed once with PBS between the assays.

[5] = biological target: T1, recombinant HIV-1 reverse transcriptase (Human immunodeficiency virus type 1 group M subtype B, UniProt P04585); assay: HIV Reverse Transcriptase Activity Assay (colorimetric kit); assay type: biochemical; details: 10 µM
T1 construct: using 4 ng recombinant HIV-1 reverse transcriptase; purchased Roche
Protocol: HIV Reverse Transcriptase Activity Assay. To determine the inhibitory effect of test compounds against HIV reverse transcriptase activity, the colorimetric Reverse Transcriptase Assay Kit (Roche) was performed according to manufacturer’s protocol using 4 ng recombinant HIV-1 reverse transcriptase. Efavirenz was used as reference compound.

[6] = biological target: T2, HIV integrase (Human immunodeficiency virus type 1 group M subtype B, UniProt P04585); assay: HIV Integrase Activity Assay (HIV-1 Integrase Assay Kit); assay type: biochemical; details: 10 µM
T2 construct: purchased XpressBio
Protocol: HIV Integrase Activity Assay. To evaluate the inhibitory effect of test compounds to counteract HIV integrase activity, the HIV-1 Integrase Assay Kit (XpressBio) was conducted according to manufacturer’s recommendations. Dolutegravir was used as reference inhibitor.

SMILES	relative levels of multiply spliced HIV transcripts [1]	IC50 [2]	IC90 [2]	IC50 ([3]; read-out: IC50 value, HIV-2 MVP10668-93)	IC90 ([3]; read-out: IC90 value, HIV-2 MVP10668-93)	selectivity index (CC50/IC50) [4]	levels of singly spliced HIV transcripts [1]	levels of unspliced HIV transcripts [1]	overall abundance of HIV mRNAs (all transcripts primers) [1]	inhibitory effect on Reverse transcriptase activity [5]	inhibitory effect on Integrase activity [6]
CN1CC[C@H](c2c(O)cc(O)c3c(=O)cc(-c4ccccc4Cl)oc23)[C@H](O)C1 [Flavopiridol]	much stronger inhibitory effect on levels of multiply spliced transcripts than compound #7										
COc1oc(C2C/C(=C/C(C)=C/c3ccc(C(F)(F)F)cc3)CO2)c(C)c(=O)c1C (stereo not drawn) [compound #7]	did not reduce relative levels of multiply spliced transcripts	2.88 nM	8.65 nM	3.88 nM	11.7 nM	> 970	strongly diminished	strongly diminished	reduced the overall abundance of HIV mRNAs	no inhibitory effects	no inhibitory effects
